According to ChEMBL document CHEMBL3407379, “Novel sesquiterpenes from Schisandra grandiflora: isolation, cytotoxic activity and synthesis of their triazole derivatives using "click" reaction” (Eur J Med Chem, 2015):

How the values were obtained:
MCF7 = assay: Cytotoxicity against human MCF7 cells assessed as cell viability after 48 hrs by MTT assay; assay type: functional, cell-based; conditions: MCF7, 48 h
HeLa = assay: Cytotoxicity against human HeLa cells assessed as cell viability after 48 hrs by MTT assay; assay type: functional, cell-based
B16 = assay: Cytotoxicity against mouse B16 cells assessed as cell viability after 48 hrs by MTT assay; assay type: functional, cell-based; conditions: B16, 48 h
DU-145 = assay: Cytotoxicity against human DU145 cells assessed as cell viability after 48 hrs by MTT assay; assay type: functional, cell-based; conditions: DU-145, 48 h
HEK293 = assay: Cytotoxicity against HEK293 cells assessed as cell viability after 48 hrs by MTT assay; assay type: cell-based; conditions: Homo sapiens, HEK293, 48 h
A549 = assay: Cytotoxicity against human A549 cells assessed as cell viability after 48 hrs by MTT assay; assay type: functional, cell-based; conditions: A549, 48 h

Compound	IC50 (MCF7)	IC50 (HeLa)	IC50 (B16)	IC50 (DU-145)	IC50 (HEK293)	IC50 (A549)
C=C1CCC[C@]2(C)CCC(c3cn(CC(=O)Nc4ccccc4)nn3)=CC[C@@]12C	148 µM	62.9 µM	148 µM	146 µM	491 µM	72.2 µM
CC1(C)CCCC23C=C[C@](C)(CC[C@@]12C)OO3	129 µM	122 µM	343 µM	114 µM	480 µM	94.8 µM
C#CC1=CC[C@]2(CC1)C(=C)CC[C@H]2C(C)C	135 µM	97.6 µM	123 µM	121 µM	740 µM	103 µM
C#CC1=CC[C@@]2(C)C(=C)CCC[C@]2(C)CC1	575 µM	158 µM	507 µM	386 µM	524 µM	148 µM
C=C1CCC[C@]2(C)CCC(c3cn(-c4cccc([N+](=O)[O-])c4)nn3)=CC[C@@]12C	40.3 µM	31.9 µM	31.7 µM	62.5 µM	699 µM	24.7 µM
C=C1CCC[C@]2(C)CCC(c3cn(CC(=O)Nc4ccc(C)cc4)nn3)=CC[C@@]12C	80.1 µM	131 µM	210 µM	254 µM	622 µM	270 µM
C=C1CC[C@@H](C(C)C)[C@]12CC=C(c1cn(-c3ccc(OC)cc3)nn1)CC2	63.1 µM	54.9 µM	107 µM	65.1 µM	388 µM	43.6 µM
C=C1CC[C@@H](C(C)C)[C@]12CC=C(c1cn(-c3cc(OC)c(OC)cc3OC)nn1)CC2	44 µM	37.4 µM	29.1 µM	29.7 µM	509 µM	20.5 µM
COc1cccc2c1C(=O)c1c(O)c3c(c(O)c1C2=O)C[C@@](O)(C(=O)CO)C[C@@H]3O[C@H]1C[C@H](N)[C@H](O)[C@H](C)O1 [DOXORUBICIN]	2.24 µM	3.57 µM	2.78 µM	5.3 µM	–	–
C=C1CCC[C@]2(C)CCC(C=O)=CC[C@@]12C	319 µM	190 µM	230 µM	152 µM	734 µM	145 µM
CC1(C)CCCC2=CC=C(C=O)CC[C@]21C	166 µM	163 µM	145 µM	191 µM	696 µM	138 µM
C=C1CCC[C@]2(C)CCC(c3cn(-c4cc(OC)c(OC)cc4OC)nn3)=CC[C@@]12C	41.1 µM	45 µM	47.2 µM	49.4 µM	334 µM	32.6 µM
C=C1CCC[C@]2(C)CCC(c3cn(-c4cccc(OC)c4)nn3)=CC[C@@]12C	56.2 µM	27.9 µM	34.6 µM	38.9 µM	734 µM	11.2 µM
C=C1CC[C@@H](C(C)C)[C@]12CC=C(C=O)CC2	210 µM	269 µM	428 µM	165 µM	550 µM	170 µM
C=C1CCC[C@]2(C)CCC(c3cn(-c4ccc(I)cc4)nn3)=CC[C@@]12C	162 µM	144 µM	144 µM	145 µM	215 µM	137 µM
C=C1CCC[C@]2(C)CCC(c3cn(-c4ccc(Cl)cc4)nn3)=CC[C@@]12C	35.1 µM	18.8 µM	27.2 µM	26 µM	609 µM	20.1 µM
CC1(C)CCC[C@]1(C)c1ccc(C=O)cc1	202 µM	252 µM	257 µM	260 µM	771 µM	216 µM
C=C1CCC[C@]2(C)CCC(c3cn(-c4ccc(C(C)=O)cc4)nn3)=CC[C@@]12C	65.4 µM	15.1 µM	61 µM	51.7 µM	520 µM	46.4 µM
C=C1CC[C@@H](C(C)C)[C@]12CC=C(c1cn(CC(=O)Nc3ccc(C)cc3)nn1)CC2	142 µM	54.1 µM	195 µM	44.5 µM	303 µM	31.7 µM
C=C1CCC[C@]2(C)CCC(c3cn(-c4ccc(C)cc4)nn3)=CC[C@@]12C	54.9 µM	69.1 µM	57.6 µM	132 µM	524 µM	58.8 µM
C=C1CCC[C@]2(C)CCC(c3cn(-c4ccc(OC)cc4)nn3)=CC[C@@]12C	118 µM	43.6 µM	209 µM	58.9 µM	410 µM	34.6 µM
C=C1CCC[C@]2(C)CCC(c3cn(-c4ccccc4C(C)=O)nn3)=CC[C@@]12C	29.9 µM	55.7 µM	42.2 µM	48.5 µM	524 µM	37.6 µM
